According to patent US9895346B2, “Applications of substituent benzyloxy group containing ether compounds for preparing antitumor drugs” (Sinochem Corporation, priority 2013, dated 2018):

Assays:
Type in all cases: cell-based, human
[1] = tested on: colon cancer HCT116; test: In vitro cell inhibition assay, colon cancer HCT116
From the text: (§1) In vitro Cell inhibition assay is as follows:
(§2) The human cancer cell lines used for this assay were bladder cancer J82, T24, prostate cancer LNCap, PC-3, lung cancer A549, H157, H460, H520, colon cancer HCT8, HCT116, RkO, and leukemia HL-60, etc.

[2] = tested on: bladder cancer cell line J82; test: In vitro cell inhibition assay (crystal violet), bladder cancer J82
From the text: as §1, §2
(§3) In vitro cell culture technology was selected for the determination of inhibition rate bladder cancer cell lines J82 and T24, prostate cancer cell lines LNCap and PC-3, lung cancer cell lines A549, H157, H460 and H520. 1000 to 3000 cells were inoculated to 24-well plate, followed by addition of 1 mL culture medium well known to researchers in this field to each well, the cells were cultured in 5% incubator for 24 hours at 37° C., then the different concentration compounds and controls were added to each well. It should be noted that the added volume is not more than 0.5% of total volume. After completion of addition, the cells continued being cultured in incubator for one week, the culture medium was removed and washed by cold PBS of 1 mL once, and then fixed for 10 minutes at room temperature with 1% formalin, followed by wash with PBS of 1 mL. After fixation, stain was carried out with 0.1% crystal violet for 30 minutes. 0.1% crystal violet was recycled. The stained cells were washed gently with deionized water, dried at room temperature and kepted. The inhibition rate was calculated according to the foiling equation. The controls are Selumetinib (AZD6244), Gefitinib, Cisplatin. Inhibition rate=number of left cells each treatment/number of left cells of untreated control×100%

[3] = tested on: colon cancer RkO; test: In vitro cell inhibition assay, colon cancer RkO
From the text: as §1, §2

[4] = tested on: lung cancer cell line H460; test: In vitro cell inhibition assay (crystal violet), lung cancer H460
From the text: as §1, §2, §3

[5] = tested on: colon cancer HCT8; test: In vitro cell inhibition assay, colon cancer HCT8
From the text: as §1, §2

[6] = tested on: lung cancer cell line A549; test: In vitro cell inhibition assay (crystal violet), lung cancer A549
From the text: as §1, §2, §3

[7] = tested on: lung cancer cell line H520; test: In vitro cell inhibition assay (crystal violet), lung cancer H520
From the text: as §1, §2, §3

[8] = tested on: bladder cancer cell line T24; test: In vitro cell inhibition assay (crystal violet), bladder cancer T24
From the text: as §1, §2, §3

[9] = tested on: prostate cancer cell line PC-3; test: In vitro cell inhibition assay (crystal violet), prostate cancer PC-3
From the text: as §1, §2, §3

[10] = tested on: prostate cancer cell line LNCap; test: In vitro cell inhibition assay (crystal violet), prostate cancer LNCap
From the text: as §1, §2, §3

N.N.[Cl][Pt][Cl] [Cisplatin, reference compound]
Inhibition rate on human cancer cells ([1]; HCT 116, 0.25 μM): 0%
Inhibition rate on human cancer cells ([1]; HCT 116, 0.5 μM): 0%
Inhibition rate on human cancer cells ([1]; HCT 116, 1.0 μM): 5%
Inhibition rate on human cancer cells ([1]; HCT 116, 2.5 μM): 20%
Inhibition rate on human cancer cells ([1]; HCT 116, 5.0 μM): 50%
Inhibition rate on human cancer cells ([2]; J82, 0.25 μM): 0%
Inhibition rate on human cancer cells ([2]; J82, 0.5 μM): 0%
Inhibition rate on human cancer cells ([2]; J82, 1.0 μM): 0%
Inhibition rate on human cancer cells ([2]; J82, 2.5 μM): 5%
Inhibition rate on human cancer cells ([2]; J82, 5.0 μM): 20%
Inhibition rate on human cancer cells ([3]; 0.25 μM): 0%
Inhibition rate on human cancer cells ([3]; 0.5 μM): 5%
Inhibition rate on human cancer cells ([3]; 1.0 μM): 10%
Inhibition rate on human cancer cells ([3]; 2.5 μM): 50%
Inhibition rate on human cancer cells ([3]; 5.0 μM): 70%
Inhibition rate on human cancer cells ([4]; H460, 0.25 μM): 0%
Inhibition rate on human cancer cells ([4]; H460, 0.5 μM): 0%
Inhibition rate on human cancer cells ([4]; H460, 1.0 μM): 5%
Inhibition rate on human cancer cells ([4]; H460, 2.5 μM): 30%
Inhibition rate on human cancer cells ([4]; H460, 5.0 μM): 90%
Inhibition rate on human cancer cells ([5]; HCT 8, 0.25 μM): 5%
Inhibition rate on human cancer cells ([5]; HCT 8, 0.5 μM): 10%
Inhibition rate on human cancer cells ([5]; HCT 8, 1.0 μM): 50%
Inhibition rate on human cancer cells ([5]; HCT 8, 2.5 μM): 70%
Inhibition rate on human cancer cells ([5]; HCT 8, 5.0 μM): 90%
Inhibition rate on human cancer cells ([6]; A549, 0.25 μM): 0%
Inhibition rate on human cancer cells ([6]; A549, 0.5 μM): 0%
Inhibition rate on human cancer cells ([6]; A549, 1.0 μM): 5%
Inhibition rate on human cancer cells ([6]; A549, 2.5 μM): 30%
Inhibition rate on human cancer cells ([6]; A549, 5.0 μM): 80%
Inhibition rate on human cancer cells ([7]; H520, 0.25 μM): 0%
Inhibition rate on human cancer cells ([7]; H520, 0.5 μM): 5%
Inhibition rate on human cancer cells ([7]; H520, 1.0 μM): 20%
Inhibition rate on human cancer cells ([7]; H520, 2.5 μM): 30%
Inhibition rate on human cancer cells ([7]; H520, 5.0 μM): 50%
Inhibition rate on human cancer cells ([8]; T24, 0.25 μM): 0%
Inhibition rate on human cancer cells ([8]; T24, 0.5 μM): 0%
Inhibition rate on human cancer cells ([8]; T24, 1.0 μM): 0%
Inhibition rate on human cancer cells ([8]; T24, 2.5 μM): 5%
Inhibition rate on human cancer cells ([8]; T24, 5.0 μM): 20%

CO/C=C(/C(=O)OC)c1ccccc1COc1cc(C(F)(F)F)nc(Nc2ccc(Cl)cc2Cl)n1 [compound A, reference compound]
inhibition at 0.5 µM ([9]; Homo sapiens, PC-3, 0.5 μM, read-out: Inhibition rate on human cancer cells): 0%
inhibition at 1 µM ([9]; Homo sapiens, PC-3, 1.0 μM, read-out: Inhibition rate on human cancer cells): 85%
inhibition at 2.5 µM ([9]; Homo sapiens, PC-3, 2.5 μM, read-out: Inhibition rate on human cancer cells): 100%
inhibition at 5 µM ([9]; Homo sapiens, PC-3, 5.0 μM, read-out: Inhibition rate on human cancer cells): 100%
inhibition at 0.5 µM ([10]; Homo sapiens, 0.5 μM, read-out: Inhibition rate on human cancer cells): 0%
inhibition at 1 µM ([10]; Homo sapiens, 1.0 μM, read-out: Inhibition rate on human cancer cells): 100%
inhibition at 2.5 µM ([10]; Homo sapiens, 2.5 μM, read-out: Inhibition rate on human cancer cells): 100%
inhibition at 5 µM ([10]; Homo sapiens, 5.0 μM, read-out: Inhibition rate on human cancer cells): 100%
inhibition at 0.25 µM ([2]; Homo sapiens, J82, 0.25 μM, read-out: Inhibition rate on human cancer cells): 0%
inhibition at 0.5 µM ([2]; Homo sapiens, J82, 0.5 μM, read-out: Inhibition rate on human cancer cells): 50%
inhibition at 1 µM ([2]; Homo sapiens, J82, 1.0 μM, read-out: Inhibition rate on human cancer cells): 95%
inhibition at 2.5 µM ([2]; Homo sapiens, J82, 2.5 μM, read-out: Inhibition rate on human cancer cells): 100%
inhibition at 5 µM ([2]; Homo sapiens, J82, 5.0 μM, read-out: Inhibition rate on human cancer cells): 100%
inhibition at 0.5 µM ([8]; Homo sapiens, T24, 0.5 μM, read-out: Inhibition rate on human cancer cells): 0%
inhibition at 1 µM ([8]; Homo sapiens, T24, 1.0 μM, read-out: Inhibition rate on human cancer cells): 100%
inhibition at 2.5 µM ([8]; Homo sapiens, T24, 2.5 μM, read-out: Inhibition rate on human cancer cells): 100%
inhibition at 5 µM ([8]; Homo sapiens, T24, 5.0 μM, read-out: Inhibition rate on human cancer cells): 100%

CO/C=C(/C(=O)OC)c1ccccc1COc1cc(-c2ccc(Cl)cc2)nn1C [pyraoxystrobin]
Inhibition rate on human cancer cells ([9]; PC-3, 0.25 μM): 100%
Inhibition rate on human cancer cells ([9]; PC-3, 0.5 μM): 100%
Inhibition rate on human cancer cells ([9]; PC-3, 1.0 μM): 100%
Inhibition rate on human cancer cells ([9]; PC-3, 2.5 μM): 100%
Inhibition rate on human cancer cells ([9]; PC-3, 5.0 μM): 100%
Inhibition rate on human cancer cells ([10]; 0.25 μM): 100%
Inhibition rate on human cancer cells ([10]; 0.5 μM): 100%
Inhibition rate on human cancer cells ([10]; 1.0 μM): 100%
Inhibition rate on human cancer cells ([10]; 2.5 μM): 100%
Inhibition rate on human cancer cells ([10]; 5.0 μM): 100%
Inhibition rate on human cancer cells ([2]; J82, 0.25 μM): 70%
Inhibition rate on human cancer cells ([2]; J82, 0.5 μM): 100%
Inhibition rate on human cancer cells ([2]; J82, 1.0 μM): 100%
Inhibition rate on human cancer cells ([2]; J82, 2.5 μM): 100%
Inhibition rate on human cancer cells ([2]; J82, 5.0 μM): 100%
Inhibition rate on human cancer cells ([8]; T24, 0.25 μM): 100%
Inhibition rate on human cancer cells ([8]; T24, 0.5 μM): 100%
Inhibition rate on human cancer cells ([8]; T24, 1.0 μM): 100%
Inhibition rate on human cancer cells ([8]; T24, 2.5 μM): 100%
Inhibition rate on human cancer cells ([8]; T24, 5.0 μM): 100%

COC=C(C(=O)OC)c1ccccc1COc1ccc2c3c(c(=O)oc2c1)CCCC3 [Compound 28-128]
Inhibition rate on human cancer cells ([1]; HCT 116, 0.25 μM): 95%
Inhibition rate on human cancer cells ([1]; HCT 116, 0.5 μM): 100%
Inhibition rate on human cancer cells ([1]; HCT 116, 1.0 μM): 100%
Inhibition rate on human cancer cells ([1]; HCT 116, 2.5 μM): 100%
Inhibition rate on human cancer cells ([1]; HCT 116, 5.0 μM): 100%
Inhibition rate on human cancer cells ([3]; 0.25 μM): 99%
Inhibition rate on human cancer cells ([3]; 0.5 μM): 100%
Inhibition rate on human cancer cells ([3]; 1.0 μM): 100%
Inhibition rate on human cancer cells ([3]; 2.5 μM): 100%
Inhibition rate on human cancer cells ([3]; 5.0 μM): 100%
Inhibition rate on human cancer cells ([4]; H460, 0.25 μM): 80%
Inhibition rate on human cancer cells ([4]; H460, 0.5 μM): 100%
Inhibition rate on human cancer cells ([4]; H460, 1.0 μM): 100%
Inhibition rate on human cancer cells ([4]; H460, 2.5 μM): 100%
Inhibition rate on human cancer cells ([4]; H460, 5.0 μM): 100%
Inhibition rate on human cancer cells ([5]; HCT 8, 0.25 μM): 95%
Inhibition rate on human cancer cells ([5]; HCT 8, 0.5 μM): 100%
Inhibition rate on human cancer cells ([5]; HCT 8, 1.0 μM): 100%
Inhibition rate on human cancer cells ([5]; HCT 8, 2.5 μM): 100%
Inhibition rate on human cancer cells ([5]; HCT 8, 5.0 μM): 100%
Inhibition rate on human cancer cells ([6]; A549, 0.25 μM): 70%
Inhibition rate on human cancer cells ([6]; A549, 0.5 μM): 100%
Inhibition rate on human cancer cells ([6]; A549, 1.0 μM): 100%
Inhibition rate on human cancer cells ([6]; A549, 2.5 μM): 100%
Inhibition rate on human cancer cells ([6]; A549, 5.0 μM): 100%
Inhibition rate on human cancer cells ([7]; H520, 0.25 μM): 70%
Inhibition rate on human cancer cells ([7]; H520, 0.5 μM): 100%
Inhibition rate on human cancer cells ([7]; H520, 1.0 μM): 100%
Inhibition rate on human cancer cells ([7]; H520, 2.5 μM): 100%
Inhibition rate on human cancer cells ([7]; H520, 5.0 μM): 100%

CO/C=C(/C(=O)OC)c1ccccc1Oc1cc(Oc2ccccc2C#N)ncn1 [Azoxystrobin]
Inhibition rate on human cancer cells ([9]; PC-3, 5.0 μM): 0%
Inhibition rate on human cancer cells ([10]; 5.0 μM): 0%
Inhibition rate on human cancer cells ([2]; J82, 5.0 μM): 0%
Inhibition rate on human cancer cells ([8]; T24, 5.0 μM): 0%
